Assay results reported in patent US12479827B2, “Heteroaromatic carboxamide derivatives as plasma kallikrein inhibitors” (Boehringer Ingelheim International GmbH, priority 2020, dated 2025).

Legend:
Human PKK = target: T1, Human PKK (Homo sapiens, UniProt P03952); assay: Inhibition of PKK using an endpoint assay (human PKK); assay type: biochemical; settings: fluorogenic substrate H-Pro-Phe-Arg-AMC, 1 h room temperature, method names human or rat PKK, table does not say which
T1 construct: purchased Enzyme Research Laboratories
Outline: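 Endpoint fluorescence (ex 355 nm, em 460 nm) after stopping with 1 μM final PPACK II. Buffer: Tris 100 mM pH 7.8, NaCl 150 mM, BSA 0.1%, Tween20 0.05%, with 1% DMSO present; enzyme is human plasma kallikrein.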

[1] = target: T2, PKK in kaolin activated human platelet poor plasma (Homo sapiens, UniProt P03952); assay: Inhibition of PKK in kaolin activated human PPP; assay type: biochemical; settings: 25-750 μg/mL kaolin, global fit, text b200 calls the values IC90;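 also: readout is the rate of fluorogenic substrate cleavage in rfu per min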
T2 construct: Platelet poor plasma (PPP) obtained from human wholeblood; from tissue
Procedure: Platelet poor plasma (PPP) obtained from human wholeblood, anticoagulated with Na-Citrate, is incubated with various concentrations of the test compound together with either 25, 75, 250, or 750 μg/mL kaolin in assay buffer for 20 min at 37° C. such that for each kaolin dose used a concentration response is obtained for the test compound.

T1 sequence (P03952 20-390 limits assumed): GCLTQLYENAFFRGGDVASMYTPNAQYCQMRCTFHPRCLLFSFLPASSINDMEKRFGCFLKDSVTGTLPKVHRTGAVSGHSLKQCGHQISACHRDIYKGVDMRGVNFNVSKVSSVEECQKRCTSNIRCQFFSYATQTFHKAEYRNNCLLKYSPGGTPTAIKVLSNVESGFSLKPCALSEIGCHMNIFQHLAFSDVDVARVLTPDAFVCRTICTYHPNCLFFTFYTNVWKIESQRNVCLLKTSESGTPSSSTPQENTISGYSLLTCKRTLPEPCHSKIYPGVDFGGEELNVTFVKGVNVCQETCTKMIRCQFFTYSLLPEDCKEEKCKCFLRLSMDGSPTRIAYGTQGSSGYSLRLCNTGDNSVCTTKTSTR
T1 sequence (P03952 391-638 limits assumed): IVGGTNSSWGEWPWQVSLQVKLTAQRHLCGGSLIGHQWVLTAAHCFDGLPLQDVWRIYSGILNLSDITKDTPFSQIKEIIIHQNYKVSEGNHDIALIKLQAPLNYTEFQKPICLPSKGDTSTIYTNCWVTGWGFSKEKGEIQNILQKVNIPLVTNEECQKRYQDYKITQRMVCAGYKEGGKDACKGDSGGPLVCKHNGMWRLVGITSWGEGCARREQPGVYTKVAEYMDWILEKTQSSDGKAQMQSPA
T2 sequence (P03952 391-638 limits assumed): as above
T2 sequence (P03952 20-390 limits assumed): as the sequence (P03952 20-390 limits assumed) above

| Compound | IC50 (Human PKK) [nM] | IC50 [1] [nM] |
| --- | --- | --- |
| Cn1cnc2c1CC[C@H]2NC(=O)c1cn(Cc2ccc(N3CC4CC4C3)cc2C#N)cn1 (stereo partly drawn) [Example 206, 1-[(4-{3-azabicyclo[3.1.0]hexan-3-yl}-2-cyanophenyl)methyl]-N-[(4R)-1-methyl-1H,4H,5H,6H-cyclopenta[d]imidazol-4-yl]-1H-imidazole-4-carboxamide] | 0.4 | 138 |
| Cc1nc(N2CC3CC3C2)ccc1Cc1ncc(C(=O)N[C@@H]2CCc3c2ncn3C)o1 (stereo partly drawn) [Example 154, 2-[(6-{3-Azabicyclo[3.1.0]hexan-3-yl}-2-methylpyridin-3-yl)methyl]-N-[(4R)-1-methyl-1H,4H,5H,6H-cyclopenta[d]imidazol-4-yl]-1,3-oxazole-5-carboxamide] | 9.9 | 4270 |
| Cn1cnc2c1CC[C@H]2NC(=O)c1cnn(Cc2ccc(N3CC4CC4C3)nc2C(C)(C)C#N)c1 (stereo partly drawn) [Example 65, 1-[(6-{3-Azabicyclo[3.1.0]hexan-3-yl}-2-(1-cyano-1-methylethyl)pyridin-3-yl)methyl]-N-[(4R)-1-methyl-1H,4H,5H,6H-cyclopenta[d]-imidazol-4-yl]-1H-pyrazole-4-carboxamide] | 1.4 | 1230 |
| Cc1nc(N2CC3(CC3)C2)ccc1Cn1cc(C(=O)N[C@@H]2CCc3c2ncn3C)nn1 [Example 68, 1-[(6-{5-Azaspiro[2.3]hexan-5-yl}-2-methylpyridin-3-yl)-methyl]-N-[(4R)-1-methyl-1H,4H,5H,6H-cyclo-penta[d]imidazol-4-yl]-1H-1,2,3-triazole-4-carboxamide] | 1.4 | 637 |
| Cc1nc(N2CC3C(C2)C3(F)F)ccc1Cc1ncc(C(=O)N[C@@H]2CCc3c2ncn3C)o1 (stereo partly drawn) [Example 155, 2-[(6-{6,6-Difluoro-3-azabicyclo[3.1.0]hexan-3-yl}-2-methylpyridin-3-yl)methyl]-N-[(4R)-1-methyl-1H,4H,5H,6H-cyclopenta[d]imidazol-4-yl]-1,3-oxazole-5-carboxamide] | 15.4 | 4100 |
| Cc1nc(N2CC3C(C2)C3(F)F)ccc1Cc1cc(C(=O)N[C@@H]2CCc3c2ncn3C)c[nH]1 (stereo partly drawn) [Example 142, 5-[(6-{6,6-Difluoro-3-azabicyclo[3.1.0]hexan-3-yl}-2-methylpyridin-3-yl)methyl]-N-[(4R)-1-methyl-1H,4H,5H,6H-cyclopenta[d]imidazol-4-yl]-1H-pyrrole-3-carboxamide] | 5.8 | 731 |

Continued by falling IC50 (Human PKK), values first:

| IC50 (Human PKK) [nM] | IC50 [1] [nM] | Compound |
| --- | --- | --- |
| 151 | 9310 | Cn1cnc2c1CC[C@H]2NC(=O)c1cnn(Cc2ncc(N3CC4CC4C3)cn2)c1 (stereo partly drawn) [Example 71, 1-[(5-{3-Azabicyclo[3.1.0]hexan-3-yl}pyrimidin-2-yl)methyl]-N-[(4R)-1-methyl-1H,4H,5H,6H-cyclopenta[d]imidazol-4-yl]-1H-pyrazole-4-carboxamide] |
| 2.2 | 470 | CCn1nc(Cc2ccc(N3CC4C(C3)C4(F)F)nc2C)cc1C(=O)N[C@@H]1CCc2c1ncn2C (stereo partly drawn) [Example 163, 3-[(6-{6,6-Difluoro-3-azabicyclo[3.1.0]hexan-3-yl}-2-methylpyridin-3-yl)methyl]-1-ethyl-N-[(4R)-1-methyl-1H,4H,5H,6H-cyclopenta[d]imidazol-4-yl]-1H-pyrazole-5-carboxamide] |
| 1.5 | 431 | CCc1nc(N2CC3C(C2)C3(F)F)ccc1Cc1cc(C(=O)N[C@@H]2CCc3c2ncn3C)n(CC)n1 (stereo partly drawn) [Example 161, 3-[(6-{6,6-Difluoro-3-azabicyclo[3.1.0]hexan-3-yl}-2-ethylpyridin-3-yl)methyl]-1-ethyl-N-[(4R)-1-methyl-1H,4H,5H,6H-cyclopenta[d]imidazol-4-yl]-1H-pyrazole-5-carboxamide] |
| 1 | 162 | Cn1cnc2c1CC[C@H]2NC(=O)c1cnn(Cc2ccc(N3CC4C(C3)C4(F)F)nc2C(F)F)c1 (stereo partly drawn) [Example 46, 1-[(6-{6,6-Difluoro-3-azabicyclo[3.1.0]hexan-3-yl}-2-(difluoromethyl)pyridin-3-yl)methyl]-N-[(4R)-1-methyl-1H,4H,5H,6H-cyclopenta-[d]imidazol-4-yl]-1H-pyrazole-4-carboxamide] |
